These are literature values, as cited in patent publication US20130338095A1, “Chemosensory Receptor Ligand-Based Therapies” (ELCELYX THERAPEUTICS, INC., priority 2010, published 2013).

The target in the first data set is T1, sweet receptor (Homo sapiens, UniProt Q7RTX0+Q8TE23).
T1 sequence (Q8TE23 20-839): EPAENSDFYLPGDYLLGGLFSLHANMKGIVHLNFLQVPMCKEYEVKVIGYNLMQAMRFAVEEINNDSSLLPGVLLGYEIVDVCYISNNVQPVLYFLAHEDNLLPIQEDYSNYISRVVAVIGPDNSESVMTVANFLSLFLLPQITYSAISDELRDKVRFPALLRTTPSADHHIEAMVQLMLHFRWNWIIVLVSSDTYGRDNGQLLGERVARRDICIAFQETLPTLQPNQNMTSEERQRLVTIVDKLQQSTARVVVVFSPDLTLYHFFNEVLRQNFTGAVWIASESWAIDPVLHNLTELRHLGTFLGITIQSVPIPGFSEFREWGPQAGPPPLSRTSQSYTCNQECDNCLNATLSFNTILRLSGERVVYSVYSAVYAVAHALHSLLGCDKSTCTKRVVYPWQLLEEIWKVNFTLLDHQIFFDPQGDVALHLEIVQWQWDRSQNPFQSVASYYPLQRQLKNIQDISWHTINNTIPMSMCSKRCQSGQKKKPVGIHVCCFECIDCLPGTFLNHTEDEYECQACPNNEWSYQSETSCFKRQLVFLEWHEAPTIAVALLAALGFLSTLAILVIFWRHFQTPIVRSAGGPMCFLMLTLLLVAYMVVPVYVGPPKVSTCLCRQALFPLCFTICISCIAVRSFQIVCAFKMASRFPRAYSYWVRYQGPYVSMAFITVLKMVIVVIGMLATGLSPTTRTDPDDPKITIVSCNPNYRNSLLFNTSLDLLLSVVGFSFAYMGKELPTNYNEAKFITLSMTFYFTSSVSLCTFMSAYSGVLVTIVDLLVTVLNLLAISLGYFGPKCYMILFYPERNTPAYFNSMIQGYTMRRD
T1 sequence (Q7RTX0 21-852): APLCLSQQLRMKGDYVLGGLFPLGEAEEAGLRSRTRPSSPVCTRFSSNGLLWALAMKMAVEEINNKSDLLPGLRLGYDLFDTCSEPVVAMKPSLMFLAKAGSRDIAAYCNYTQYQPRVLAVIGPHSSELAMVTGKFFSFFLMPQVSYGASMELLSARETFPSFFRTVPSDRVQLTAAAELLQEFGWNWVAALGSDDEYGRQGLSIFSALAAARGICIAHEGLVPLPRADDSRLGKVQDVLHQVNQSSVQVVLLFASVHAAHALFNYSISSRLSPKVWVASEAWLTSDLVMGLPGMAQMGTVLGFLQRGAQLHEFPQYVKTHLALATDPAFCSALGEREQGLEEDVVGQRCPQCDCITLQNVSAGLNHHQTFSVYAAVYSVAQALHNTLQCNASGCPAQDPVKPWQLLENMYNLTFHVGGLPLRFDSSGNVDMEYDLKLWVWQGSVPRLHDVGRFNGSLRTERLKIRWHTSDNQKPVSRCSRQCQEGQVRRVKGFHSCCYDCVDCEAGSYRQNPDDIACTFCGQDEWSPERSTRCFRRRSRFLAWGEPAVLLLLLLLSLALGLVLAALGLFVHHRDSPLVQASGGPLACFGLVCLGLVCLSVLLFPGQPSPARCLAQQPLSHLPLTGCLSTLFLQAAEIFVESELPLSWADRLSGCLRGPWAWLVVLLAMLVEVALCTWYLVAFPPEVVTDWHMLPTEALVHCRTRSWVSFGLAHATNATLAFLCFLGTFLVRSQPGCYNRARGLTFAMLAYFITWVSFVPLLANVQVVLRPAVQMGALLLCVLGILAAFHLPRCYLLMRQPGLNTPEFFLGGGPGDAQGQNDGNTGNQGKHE
The note with it: relative sweetness on a weight comparison basis to sucrose (=1.0).
For `C=C1C[C@@]23CC[C@H]4[C@@](C)(CCC[C@@]4(C)C(=O)O[C@@H]4O[C@H](CO)[C@@H](O)[C@H](O)[C@H]4O)[C@@H]2CC[C@]1(O[C@@H]1O[C@H](CO)[C@@H](O)[C@H](O)[C@H]1O[C@@H]1O[C@H](CO)[C@@H](O)[C@H](O)[C@H]1O)C3` [Stevioside], the Sweetness/potency is 210.
As for `CC[C@@H](C)C(=O)O[C@@H](C)[C@]1(O)CC[C@]2(O)[C@@H]3CC[C@H]4C[C@@H](O[C@@H]5C[C@H](O)[C@H](O[C@H]6C[C@H](OC)[C@H](O[C@H]7C[C@@H](OC)[C@H](O[C@H]8C[C@@H](OC)[C@H](O[C@@H]9O[C@H](C)[C@@H](O[C@@H]%10O[C@H](CO)[C@@H](O)[C@H](O)[C@H]%10O)[C@H](OC)[C@H]9O)[C@@H](C)O8)[C@@H](C)O7)[C@@H](C)O6)[C@@H](C)O5)CC[C@]4(C)[C@H]3C[C@@H](OC(C)=O)[C@]12C` [Telosmoside A15], the Sweetness/potency is given as 1000.
For the compound `O=C/C=C/c1ccccc1` [Trans-Cinnamaldehyde], the Sweetness/potency is on record as 50.
Regarding `C/C=C/c1ccc(OC)cc1` [trans-Anethole], the Sweetness/potency is listed as 13.
Consider Albiziasaponin B, for which the Sweetness/potency is 600.
Take Baiyunoside: the Sweetness/potency is recorded as 500.
Regarding “Brazzein (QDKCKKVYENYPVSKCQLANQCNYDCKLDKHARSGECFYDEKRNLQCICDYCEY; UniProt P56552 1-54, looked up) [sweet protein from Pentadiplandra brazzeana]”, the Sweetness/potency is reported as 2,000.
As for Carnosifloside V, the Sweetness/potency was 51.
In the case of Curculin, the Sweetness/potency is 550.
Regarding Cyclocarioside A, the Sweetness/potency was 200.
On to Cyclocaryoside I, for which the Sweetness/potency is listed as 250.
On to Monellin, for which the Sweetness/potency is given as 3,000.
Consider Pentadin, for which the Sweetness/potency is reported as 500.
For Periandrin II, the Sweetness/potency is 95.
Regarding Periandrin IV, the Sweetness/potency was 85.
With Polypodoside A, the Sweetness/potency was 600.
Take Pterocaryoside A: the Sweetness/potency was 50.
As to Rebaudioside B, the Sweetness/potency is listed as 150.
As for Rebaudioside C, the Sweetness/potency is 30.
On to Scandenoside R6, for which the Sweetness/potency is on record as 54.
Take Thaumatin: the Sweetness/potency was 1,600.

System in a further data set: not given
The note with it: bitter phytonutrients in common plant foods.
As for `C=CCC(=NOS(=O)(=O)O)S[C@@H]1O[C@H](CO)[C@@H](O)[C@H](O)[C@H]1O` (stereo in doubt) [Sinigrin], the Taste quality result was “Bitter”.
For the compound `C[S+]([O-])CCCN=C=S` (stereo not drawn) [3-Methyl-sulfinylpropyl isothiocyanate], the Taste quality result was “Acrid mustard oils”.
As to `C[S+]([O-])CCCCN=C=S` (stereo not drawn) [4-Methylsulfinyl butyl isothiocyanate], the Taste quality result is given as “Acrid mustard oils”.
Regarding `O=c1c(-c2ccc(O)cc2)coc2cc(O[C@@H]3O[C@H](CO)[C@@H](O)[C@H](O)[C@H]3O)ccc12` [Daidzin], the Taste quality entry is given as “Astringent”.
On to `O=C(O[C@@H]1Cc2c(O)cc(O)cc2O[C@@H]1c1ccc(O)c(O)c1)c1cc(O)c(O)c(O)c1` [Epicatechin gallate], for which the Taste quality result is “Bitter and astringent”.
`O=c1c(-c2ccc(O)cc2)coc2cc(O)cc(O)c12` [Genistein]: the Taste quality entry is recorded as “Bitter or astringent”.
With `O=c1c(-c2ccc(O)cc2)coc2cc(O[C@@H]3O[C@H](CO)[C@@H](O)[C@H](O)[C@H]3O)cc(O)c12` [Genistin], the Taste quality entry was “Astringent”.
On to `O=S(=O)(O)ON=C(Cc1c[nH]c2ccccc12)S[C@@H]1O[C@H](CO)[C@@H](O)[C@H](O)[C@H]1O` [Glucobrassicin], for which the Taste quality result is “Bitter”.
For `C=CC1CNC(=S)O1` (stereo not drawn) [Goitrin 5-vinyl-2-oxazolidine thione, 5-vinyl-2-oxazolidine thione], the Taste quality result is given as “Bitter”.
